Test results published in patent publication US9266870B2 (TAISHO PHARMACEUTICAL CO., LTD., priority 2012, dated 2016).

How the values were obtained:
[1] = target: human orexin-1 receptor (hOX1R) (Homo sapiens (Human), UniProt O43613); assay: Measurement of orexin antagonistic activity (intracellular Ca2+ fluorescence, FDSS), hOX1R; type: cell-based; settings: CHO cells forcibly expressing hOX1R; ligand peptide (modified human orexin-A) 300 pM; maximum fluorescence intensity; read-out: IC50 Value OX1
Sequence of human orexin-1 receptor (hOX1R) (O43613 whole entry): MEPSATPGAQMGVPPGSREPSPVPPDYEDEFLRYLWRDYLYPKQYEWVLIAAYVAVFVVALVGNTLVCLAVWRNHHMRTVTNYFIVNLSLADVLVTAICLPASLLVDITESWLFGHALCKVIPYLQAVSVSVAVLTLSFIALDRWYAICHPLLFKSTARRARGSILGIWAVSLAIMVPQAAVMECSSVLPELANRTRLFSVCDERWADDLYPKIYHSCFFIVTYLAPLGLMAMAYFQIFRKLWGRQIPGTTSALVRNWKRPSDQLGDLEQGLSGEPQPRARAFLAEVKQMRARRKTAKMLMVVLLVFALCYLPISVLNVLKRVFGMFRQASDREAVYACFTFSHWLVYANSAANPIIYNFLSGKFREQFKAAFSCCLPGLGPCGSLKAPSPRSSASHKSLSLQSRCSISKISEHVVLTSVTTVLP
Procedure: (§1) Chinese hamster ovary (CHO) cells forcibly expressing the hOX1R and hOX2R were seeded into a 96 well Black clear bottom plate (Nunc) at 20,000 cells per well, which were cultured in Ham's F-12 medium containing 0.1 mM MEM non-essential amino acids, 0.5 mg/ml G418, 10% fetal bovine serum (all by Invitrogen) for 16 hours under the conditions of 37° C., 5% CO2. After removing the medium, 100 μL of 0.5 μM Fluo-4AM ester (Dojin) in an assay buffer (25 mM HEPES (Dojin), Hank's balanced salt solution (Invitrogen), 0.1% bovine serum albumin, 2.5 mM probenecid, 200 μg/ml Amaranth (all by Sigma-Aldrich), pH 7.4) was added and the cells were incubated for 60 minutes at 37° C., 5% CO2. After removing the assay buffer containing fluo-3AM ester, the test compound was dissolved in dimethyl sulfoxide to be 10 mM and diluted with the assay buffer, 150 μL of which was added and incubated for 30 minutes.
(§2) The reaction was measured for the fluorescence intensity of each well every second for 3 minutes using Functional Drug Screening System (FDSS; Hamamatsu Photonics K.K.), and the antagonistic activity was determined using the maximum fluorescence intensity as the indicator of intracellular Ca2+ concentration.

[2] = target: human orexin-2 receptor (hOX2R) (Homo sapiens (Human), UniProt O43614); assay: Measurement of orexin antagonistic activity (intracellular Ca2+ fluorescence, FDSS), hOX2R; type: cell-based; settings: CHO cells forcibly expressing hOX2R; ligand peptide (modified human orexin-A) 3 nM; maximum fluorescence intensity; read-out: IC50 Value OX2
Sequence of human orexin-2 receptor (hOX2R) (O43614 whole entry): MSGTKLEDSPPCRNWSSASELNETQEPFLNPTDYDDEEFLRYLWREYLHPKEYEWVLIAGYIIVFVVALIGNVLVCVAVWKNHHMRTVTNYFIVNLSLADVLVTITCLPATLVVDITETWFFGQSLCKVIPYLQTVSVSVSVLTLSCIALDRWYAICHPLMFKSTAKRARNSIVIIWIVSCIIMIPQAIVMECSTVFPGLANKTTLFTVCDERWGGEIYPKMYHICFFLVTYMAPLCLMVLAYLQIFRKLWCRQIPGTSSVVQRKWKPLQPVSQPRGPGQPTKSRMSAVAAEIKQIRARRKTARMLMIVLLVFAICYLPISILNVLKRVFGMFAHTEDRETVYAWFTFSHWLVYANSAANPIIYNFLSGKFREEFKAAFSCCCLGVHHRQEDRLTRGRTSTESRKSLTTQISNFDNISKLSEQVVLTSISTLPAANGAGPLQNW
Procedure: as §1, with “The antagonistic activities of the test compounds on human orexin-1 receptor (hOX1R) and orexin-2 receptor (hOX2R) were measured by modifying from the method described in literature (Toshikatsu Okumura et al., Biochemical and Biophysical Research Communications 280, 976-981, 2001). Chinese” for “Chinese”
as §2

Row | SMILES | IC50 [1] [nM] | IC50 [2] [nM]
1 | Cc1ccc(-n2nccn2)c(C(=O)N2CCCOC2Cn2cc(-c3ccc(F)cc3)cn2)n1 (single isomer, unassigned; (-)) [Example 31, (−)-(2-[[4-(4-fluorophenyl)-1H-pyrazol-1-yl]methyl]-1,3-oxazinan-3-yl) [6-methyl-3-(2H-l,2,3-triazol-2-yl)pyridin-2-yl] methanone] | 10.9 | 7.3
2 | Cc1ccc(-n2nccn2)c(C(=O)N2CCCOC2Cc2noc(-c3ccc(F)cc3)n2)c1 (single isomer, unassigned; (-)) [Example 37, (−)-[2-[[5-(4-fluorophenyl)-1,2,4-oxadiazol-3-yl]methyl]-1,3-oxazinan-3-yl] [5-methyl-2-(2H-1,2,3-triazol-2-yl)phenyl] methanone] | 1.1 | 1.7
